PMC9500407, “Quantifying the transport of biologics across intestinal barrier models in real-time by fluorescent imaging” (Frontiers in Bioengineering and Biotechnology, 2022)
Like-named read-outs stand apart in the source and are kept apart here.

Legend:
[1] = cited from earlier work
Excerpt: page 17: Supplementary Table 5. Direct statistical comparison of drug transport in Transwells, mono-and coculture tubules of 12 model drugs using an unpaired t-test.

[2] = test system: Caco-2:HT29-MTX E12 coculture tubules (chip); test: Lucifer Yellow leakage after drug exposure, chip coculture; settings: 100 µM LY co-applied, after 2 h of exposure to 10 µM drug
[3] = test system: Caco-2:HT29-MTX E12 coculture tubules (chip); test: In vitro drug absorption study, OrganoPlate chip coculture tubules, Papp by LC-MS; settings: OrganoPlate Caco-2:HT29-MTX E12 6:1 coculture tubules, day 4, A-B, apical pH 6.5 / basolateral pH 7.4, 10 µM drug in 0.1% DMSO, 2 h, 37°C, constant flow, mean ± SEM, at least three biological replicates
[4] = test system: Caco-2 monoculture tubules (chip); test: In vitro drug absorption study, OrganoPlate chip monoculture tubules, Papp by LC-MS; settings: OrganoPlate Caco-2 monoculture tubules, day 4, A-B, apical pH 6.5 / basolateral pH 7.4, 10 µM drug in 0.1% DMSO, 2 h, 37°C, constant flow, mean ± SEM, at least three biological replicates
[5] = test system: Caco-2 monolayers (Transwell); test: Lucifer Yellow leakage after drug exposure, Transwell; settings: 100 µM LY co-applied, after 2 h of exposure to 10 µM drug, Caco-2 Transwell
[6] = test system: Caco-2 monolayers (Transwell); test: In vitro drug absorption study, Transwell Caco-2 monolayer, Papp by LC-MS; settings: Caco-2 Transwell, 19-21 days culture, apical pH 6.5 / basolateral pH 7.4 (TB, 10 mM HANKS/HBSS), 10 µM drug in 0.1% DMSO, 2 h, 37°C, static, mean ± SEM, at least three biological replicates
[7] = test system: Caco-2 monoculture tubules (chip); test: Lucifer Yellow leakage after drug exposure, chip monoculture; settings: 100 µM LY co-applied, after 2 h of exposure to 10 µM drug
[8] = cited from earlier work; remark: listed apart in the source
Excerpt: page 15: Supplementary Table 4. Comparison of apparent permeability in chips using mono-and coculture tubules and Transwell system of 12 model drugs.

[9] = test system: Caco-2:HT29-MTX E12 coculture tubules; test: Image based analysis of SNAC induced semaglutide transport; assay type: in vitro ADME, human
Excerpt: semaglutide (purple) and FITC-dextran (green). Scale bar is 500 µm. Data represent the mean
of at least two biological replicates per condition.

[10] = known route of the drug, no reference given
[11] = human, ref Takenaka et al., 2016

Row | Compound | Transport route [1, 10] | Lucifer Yellow leakage (%) Chip Caco-2:HT29-MTX E12 [2] [%] | Chip Caco-2:HT29-MTX E12 Papp (apparent permeability coefficient from A B) [3] | Chip Caco-2 Papp (apparent permeability coefficient from A B) [4] | Lucifer Yellow leakage (%) Transwell [5] [%] | TW Caco-2 Papp (apparent permeability coefficient from A B) [6] | Lucifer Yellow leakage (%) Chip Caco-2 [7] [%] | FA in human % (fraction absorbed in human) [8, 11] [%] | FA in human % (fraction absorbed in human) ([8]; human, ref Youhanna and Lauschke, 2021) [%] | Chip Caco-2:HT29-MTX E12 Papp (apparent permeability coefficient from A B) ([3]; listed as Erythromycin) [cm/s] | FA in human % (fraction absorbed in human) ([8]; in vivo) [%] | Transport route [1] | Effect on cell layer (micrographs) ([9]; 40 mM SNAC) | Effect on cell layer ([9]; SNAC 20 mM or 40 mM with semaglutide-Cy3 5 µM, approx. 4 h, bright field and dextran)
1 | C=C[C@H]1C[N@@]2CC[C@H]1C[C@@H]2[C@@H](O)c1ccnc2ccc(OC)cc12 [Quinidine] | Transcellular | – | – | – | – | – | – | – | – | – | – | – | – | –
2 | COCCc1ccc(OCC(O)CNC(C)C)cc1 (centres unmarked) [Metoprolol] | – | 0.09 | 44.99 ± 1.05 × 10-6 cm/sec | 17.67± 4.98 × 10-6 cm/sec | 0.02 | 47.63± 5.44 × 10-6 cm/sec | 0.02 | – | – | – | – | – | – | –
3 | CNC(=C[N+](=O)[O-])NCCSCc1ccc(CN(C)C)o1 [Rantidine] | Paracellular | 0.01 | 2.29 ± 0.27 × 10^-6 cm/sec | 1.80± 0.27 × 10^-6 cm/sec | 0.02 | 3.22± 0.93 × 10^-6 cm/sec | 0.02 | 50 | – | – | – | – | – | –
4 | CC[C@H]1OC(=O)[C@H](C)[C@@H](O[C@H]2C[C@@](C)(OC)[C@@H](O)[C@H](C)O2)[C@H](C)[C@@H](O[C@@H]2O[C@H](C)C[C@H](N(C)C)[C@H]2O)[C@](C)(O)C[C@@H](C)C(=O)[C@H](C)[C@@H](O)[C@]1(C)O [Erythromicin] | – | 0.01 | 0.99 ± 0.32 × 10^-6 cm/sec | 1.33e-06 cm/s | 0.03 | 1.2e-06 cm/s | 0.04 | – | 35 | 9.9e-07 | – | – | – | –
5 | CC(C)(C)NCC(O)c1cc(O)cc(O)c1 (centres unmarked) [Terbutaline] | – | 0.01 | 5.09 ± 0.06 × 10-6 cm/sec | 7.11± 0.43 × 10-6 cm/sec | 0.02 | 1.85± 0.10 × 10-6 cm/sec | 0.02 | – | – | – | 44 | Paracellular | – | –
6 | CC(C)NCC(O)COc1cccc2ccccc12 (centres unmarked) [Propranolol] | – | 0.03 | 86.05 ± 21.67 × 10-6 cm/sec | 71.42± 5.08 × 10-6 cm/sec | 0.02 | 101.68± 23.00 × 10-6 cm/sec | 0.03 | – | – | – | – | – | – | –
7 | CC(=O)CC(c1ccccc1)c1c(O)c2ccccc2oc1=O (centres unmarked) [Warfarin] | – | – | 0.00030039 cm/s | 160.97± 40.49 × 10-6 cm/sec | 0.02 | 0.00024341 cm/s | – | – | – | – | – | – | – | –
8 | NC(=O)N1c2ccccc2C=Cc2ccccc21 [Carbamazepine] | – | 0.01 | 140.04 ± 6.25 × 10-6 cm/sec | 0.00021399 cm/s | 0.02 | 204.43± 9.20 × 10-6 cm/sec | 0.02 | – | – | – | 100 | Transcellular | – | –
9 | O=C([O-])CCCCCCCNC(=O)c1ccccc1O.[Na+] [SNAC, salcaprozate sodium] | – | – | – | – | – | – | – | – | – | – | – | – | partial removal of cell layer | irreversible damage to the cell layer
10 | CN/C(=N/CCSCc1nc[nH]c1C)NC#N [Cimetidine] | – | 0.02 | 11.87 ± 3.41 × 10^-6 cm/sec | 9.79± 3.41 × 10^-6 cm/sec | 0.03 | 5.08± 1.39 × 10^-6 cm/sec | 0.03 | 62 | – | – | – | Paracellular | – | –
11 | CN(C)C(=O)C(CCN1CCC(O)(c2ccc(Cl)cc2)CC1)(c1ccccc1)c1ccccc1 [Loperamide] | – | 0.02 | 2.75 ± 1.13 × 10^-6 cm/sec | 11.03± 1.62 × 10^-6 cm/sec | 0.02 | 58.60± 8.62 × 10^-6 cm/sec | 0.68 | – | – | – | – | – | – | –
